The results in this text go back to PMC5478727, “A Novel Small Molecule GDNF Receptor RET Agonist, BT13, Promotes Neurite Growth from Sensory Neurons in Vitro and Attenuates Experimental Neuropathy in the Rat” (Frontiers in Pharmacology, 2017).

Where only a bound is given, the exact number is not on record here.

Experiment [1] concerns the target neurokinin receptor NK1 (Homo sapiens, UniProt P25103). Description: CEREP NK1 (h) (agonist radioligand). In kind it is binding. The conditions noted are these: BT13 1 μM; Cat. No. 0100; average of duplicate; read-out: Percentage of inhibition/potentiation from control.
Experiment [2] concerns the target T1, CYP2C19 (Homo sapiens, UniProt P33261).
T1 construct: Cyathus Exquirere (contract laboratory)
The experiment can be described thus: CYP inhibition, fluorescent assay. In kind it is biochemical. The conditions noted are these: read-out: Inhibition of CYP isoforms (IC50), CYP2C19.

Experiment [3] deals with histamine receptor H2 (Homo sapiens, UniProt P25021). The experiment can be described thus: CEREP H2 (h) (antagonist radioligand). In kind it is binding. Particulars: BT13 1 μM; Cat. No. 1208; average of duplicate; read-out: Percentage of inhibition/potentiation from control.
Chain of histamine receptor H2 (P25021 whole entry): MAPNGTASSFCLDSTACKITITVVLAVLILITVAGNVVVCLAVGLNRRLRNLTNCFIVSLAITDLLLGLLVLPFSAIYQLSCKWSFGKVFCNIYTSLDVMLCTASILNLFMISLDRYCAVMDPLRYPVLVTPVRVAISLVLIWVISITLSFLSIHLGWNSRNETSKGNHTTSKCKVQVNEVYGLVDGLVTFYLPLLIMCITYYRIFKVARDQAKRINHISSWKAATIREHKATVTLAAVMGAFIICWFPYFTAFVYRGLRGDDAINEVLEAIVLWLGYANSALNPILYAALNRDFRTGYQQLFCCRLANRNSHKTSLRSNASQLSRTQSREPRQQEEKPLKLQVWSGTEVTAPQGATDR
Experiment [4] deals with cholecystokinin receptor CCK2 (CCKB) (Homo sapiens, UniProt P32239). The experiment can be described thus: CEREP CCK2 (CCKB) (h) (agonist radioligand). In kind it is binding. The conditions noted are these: BT13 1 μM; Cat. No. 0041; average of duplicate; read-out: Percentage of inhibition/potentiation from control.
Chain of cholecystokinin receptor CCK2 (CCKB) (P32239 whole entry): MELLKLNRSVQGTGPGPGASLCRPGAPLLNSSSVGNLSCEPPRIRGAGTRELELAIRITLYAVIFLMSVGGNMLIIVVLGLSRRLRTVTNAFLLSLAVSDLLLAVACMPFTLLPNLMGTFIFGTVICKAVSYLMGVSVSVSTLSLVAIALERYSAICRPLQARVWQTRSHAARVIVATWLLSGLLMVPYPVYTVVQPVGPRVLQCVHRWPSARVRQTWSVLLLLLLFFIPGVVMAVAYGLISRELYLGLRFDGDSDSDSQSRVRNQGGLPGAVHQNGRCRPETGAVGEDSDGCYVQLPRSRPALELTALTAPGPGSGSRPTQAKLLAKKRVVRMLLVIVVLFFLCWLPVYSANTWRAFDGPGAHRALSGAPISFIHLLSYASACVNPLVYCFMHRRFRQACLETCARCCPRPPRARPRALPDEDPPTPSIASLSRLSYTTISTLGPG
Experiment [5] relates to Akt and Erk phosphorylation in MG87TrkB. The experiment can be described thus: Erk1/2 and Akt phosphorylation assay in MG87TrkB cells. The conditions noted are these: BT13 10–100 μM, BDNF positive control. In kind it is cell-based, murine. On the procedure: (§1) MG87RET, MG87TrkA, or MG87TrkB were plated on 35 mm tissue culture dishes 1–2 days before the experiment to achieve 90–95% of confluency of the cells at the day of stimulation with tested substances. If necessary, cells were transfected with 4 μg/well of GFRα1-, GFRα3-, or green fluorescent protein (GFP)-expressing plasmid using Lipofectamine 2000 (Invitrogen) for DNA delivery as described by manufacturer. Before the experiment cells were starved in serum-free DMEM containing 15 mM HEPES, pH 7.2 and 1% DMSO for 4 h and stimulated with BT13 or neurotrophic factors. Then cells were washed once with ice-cold PBS containing 1 mM Na3VO4 and 1 mM NaF and lysed on ice in 1 ml per well of RIPA-modified buffer (50 mM Tris-HCl, pH 7.4, 150 mM NaCl, 1 mM EDTA, 1% NP-40, 1% TX-100, 10% glycerol, EDTA-free protease inhibitor cocktail (Roche), 1 mM Na3VO4, 2.5 mg/ml of sodium deoxycholate, 1 mM NaF). Plates were incubated at +4°C on the horizontal shaker for 30 min with vigorous shaking. Afterwards, 80–100 μl aliquot was taken from each well to prepare whole cell lysates. This aliquot was mixed with equal volume of 2x Laemmli loading buffer (4% SDS, 20% glycerol, 10% 2-mercaptoethanol, 0.004% bromphenol blue, 0.125 M Tris HCl, pH 6.8) and boiled for 10 min at 100°C. Remaining cell lysates were used for immunoprecipitation of RET or Trk receptors. […]

The target of experiment [6] is T2, hERG (human Ether-à-go-go-related gene) (Homo sapiens, UniProt Q12809).
T2 construct: host or cells: HEK293
T2 sequence (Q12809 whole entry): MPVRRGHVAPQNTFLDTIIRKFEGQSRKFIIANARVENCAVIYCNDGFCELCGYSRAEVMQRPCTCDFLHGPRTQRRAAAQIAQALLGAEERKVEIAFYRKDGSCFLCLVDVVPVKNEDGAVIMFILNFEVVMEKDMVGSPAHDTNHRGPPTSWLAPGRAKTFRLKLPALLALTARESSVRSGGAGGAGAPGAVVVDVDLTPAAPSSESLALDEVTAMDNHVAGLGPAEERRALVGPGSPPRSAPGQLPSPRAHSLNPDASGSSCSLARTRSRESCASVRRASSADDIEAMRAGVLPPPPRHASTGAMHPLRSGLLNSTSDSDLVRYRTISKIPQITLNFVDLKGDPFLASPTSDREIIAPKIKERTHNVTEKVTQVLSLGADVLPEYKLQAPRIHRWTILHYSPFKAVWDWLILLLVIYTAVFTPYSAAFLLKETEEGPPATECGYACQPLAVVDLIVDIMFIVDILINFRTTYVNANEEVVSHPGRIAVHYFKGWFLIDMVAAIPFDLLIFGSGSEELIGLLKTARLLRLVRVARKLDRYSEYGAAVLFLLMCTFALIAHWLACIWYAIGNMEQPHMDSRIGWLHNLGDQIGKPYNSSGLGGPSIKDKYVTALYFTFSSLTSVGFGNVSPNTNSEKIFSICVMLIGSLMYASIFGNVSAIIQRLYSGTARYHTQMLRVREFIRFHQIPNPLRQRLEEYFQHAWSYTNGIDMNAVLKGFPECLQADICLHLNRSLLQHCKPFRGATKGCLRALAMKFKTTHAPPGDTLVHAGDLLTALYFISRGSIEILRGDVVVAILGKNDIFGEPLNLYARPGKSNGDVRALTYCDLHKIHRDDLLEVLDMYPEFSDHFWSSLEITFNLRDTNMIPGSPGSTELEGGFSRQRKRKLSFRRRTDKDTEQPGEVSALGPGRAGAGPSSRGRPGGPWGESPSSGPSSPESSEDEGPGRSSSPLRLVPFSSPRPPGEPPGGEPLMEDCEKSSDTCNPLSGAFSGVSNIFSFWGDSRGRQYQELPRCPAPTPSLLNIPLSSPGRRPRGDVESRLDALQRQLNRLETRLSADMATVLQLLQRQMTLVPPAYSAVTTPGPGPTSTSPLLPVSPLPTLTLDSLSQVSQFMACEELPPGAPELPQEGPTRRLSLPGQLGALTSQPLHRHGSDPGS
Description: hERG competition assay with [3H]-astemizole. In kind it is binding. The conditions noted are these: competition with [3H]-astemizole; membranes of HEK293 cells; read-out: hERG inhibition (Ki). For orientation: The hERG channel carries a current that helps repolarise heart muscle cells.

In experiment [7] the test system is Akt and Erk phosphorylation (RET downstream targets). Description: Erk1/2 and Akt phosphorylation assay in MG87RET fibroblasts. In kind it is cell-based, murine. The conditions noted are these: 25–50 μM; in the presence and absence of GFRα3 co-receptor.
In experiment [8] the target is T3, Protein Serine/Threonine Phosphatase, PP2A (Homo sapiens, UniProt P67775).
T3 construct: purchased CEREP (contract assay) 3953
T3 sequence (P67775 whole entry): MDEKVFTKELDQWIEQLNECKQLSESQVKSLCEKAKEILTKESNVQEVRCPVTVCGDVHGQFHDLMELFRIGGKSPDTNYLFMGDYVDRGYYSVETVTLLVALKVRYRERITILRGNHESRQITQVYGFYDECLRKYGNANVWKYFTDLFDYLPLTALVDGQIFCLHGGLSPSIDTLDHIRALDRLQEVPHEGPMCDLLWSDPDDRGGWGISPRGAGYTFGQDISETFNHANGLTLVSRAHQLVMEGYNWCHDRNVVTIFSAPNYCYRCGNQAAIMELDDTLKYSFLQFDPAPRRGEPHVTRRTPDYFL
Description: CEREP Protein Serine/Threonine Phosphatase, PP2A. In kind it is biochemical. Particulars: BT13 1 μM; Cat. No. 3953; average of duplicate; read-out: Percentage of inhibition/potentiation from control.

In experiment [9] the test system is TrkA. The experiment can be described thus: TrkA phosphorylation assay in MG87TrkA cells. In kind it is cell-based. The conditions noted are these: BT13 10–100 μM, NGF positive control. On the procedure: as §1
In experiment [10] the test system is adrenergic receptor alpha 1. The experiment can be described thus: CEREP Alpha 1 (non-selective; antagonist radioligand). The conditions noted are these: BT13 1 μM; Cat. No. 0008; average of duplicate. In kind it is binding.

The IC50 is the concentration at which inhibition is half-maximal. What is called Ki is a measure of affinity in units of concentration, obtained from inhibition or displacement.

T1 sequence (P33261 whole entry): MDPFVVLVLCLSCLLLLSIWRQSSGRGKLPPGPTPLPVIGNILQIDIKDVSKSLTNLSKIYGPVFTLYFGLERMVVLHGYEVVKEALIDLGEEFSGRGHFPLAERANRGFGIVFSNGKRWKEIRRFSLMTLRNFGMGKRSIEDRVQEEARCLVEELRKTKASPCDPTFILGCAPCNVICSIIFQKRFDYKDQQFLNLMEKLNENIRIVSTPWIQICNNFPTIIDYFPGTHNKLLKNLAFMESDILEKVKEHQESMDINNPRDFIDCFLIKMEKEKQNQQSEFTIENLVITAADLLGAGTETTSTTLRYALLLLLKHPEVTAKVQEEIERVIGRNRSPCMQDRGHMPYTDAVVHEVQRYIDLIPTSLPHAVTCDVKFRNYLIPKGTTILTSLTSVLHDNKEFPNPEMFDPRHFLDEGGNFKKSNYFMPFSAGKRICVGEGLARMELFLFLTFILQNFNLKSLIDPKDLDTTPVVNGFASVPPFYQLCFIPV
Chain of neurokinin receptor NK1 (P25103 whole entry): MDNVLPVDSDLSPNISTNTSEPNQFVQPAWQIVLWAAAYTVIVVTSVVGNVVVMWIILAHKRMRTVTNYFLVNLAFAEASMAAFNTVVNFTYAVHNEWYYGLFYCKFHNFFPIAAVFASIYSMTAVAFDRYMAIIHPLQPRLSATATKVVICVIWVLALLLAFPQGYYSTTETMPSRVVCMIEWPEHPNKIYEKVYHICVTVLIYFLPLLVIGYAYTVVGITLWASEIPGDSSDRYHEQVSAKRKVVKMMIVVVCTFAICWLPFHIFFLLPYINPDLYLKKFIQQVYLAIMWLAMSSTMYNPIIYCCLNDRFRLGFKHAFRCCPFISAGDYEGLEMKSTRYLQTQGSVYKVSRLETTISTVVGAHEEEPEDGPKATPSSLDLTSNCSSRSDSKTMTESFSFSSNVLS

`CCN(CC)S(=O)(=O)c1ccc(OC)c(N2CCN(C(=O)c3ccc(F)cc3C(F)(F)F)CC2)c1` [BT13]: the inhibition at 1 µM is -19% in [1], 9% in experiment [3], 1% in [4] and 4% in experiment [8]. The IC50 in [2] is above 100 µM. The “Akt and Erk phosphorylation” value in [5] is given as “no Akt or Erk phosphorylation was observed”. For the same molecule, in [6], the Ki is above 30 µM. For the same molecule, the “phosphorylation of RET downstream targets Akt and Erk” value in experiment [7] is on record as “elicited phosphorylation”. Moreover, the “TrkA phosphorylation, Western blotting” value in [9] is listed as “did not produce any detectable increase”. Further, in experiment [10], the “Percentage of inhibition/potentiation from control” value is on record as 2%.
